Consider 32 compounds from patent US10336697B2, “Spiro[cyclobutane-1,3′-indolin]-2′-one derivatives as bromodomain inhibitors” (Orion Corporation, priority 2015, dated 2019).

This experiment concerns the target Bet BRD4 full length bromo-domain protein (Homo sapiens, UniProt O60885). Nature of the experiment: Bet bromodomain TR-FRET assay (displacement of acetyl histone peptide). It counts as binding. As to conditions: Bet BRD4 full length bromodomain protein, 300 nM acetyl histone peptide substrate, read-out: IC50. On the technique in general: TR-FRET usually uses a lanthanide donor and a delayed reading to cut background.

As to `COc1ccccc1S(=O)(=O)Nc1cc(Cc2ccccc2F)c2c(c1)C1(CCC1)C(=O)N2` [Compound 9, N-(7′-(2-fluorobenzyl)-2′-oxospiro[cyclobutane-1,3′-indolin]-5′-yl)-2-methoxybenzenesulfonamide], the IC50 – broadly, the concentration at which inhibition is half-maximal – was less than 600 nM.

As to `COc1ccccc1S(=O)(=O)Nc1cc(Cc2cccc(F)c2)c2c(c1)C1(CCC1)C(=O)N2` [Compound 10, N-(7′-(3-fluorobenzyl)-2′-oxospiro[cyclobutane-1,3′-indolin]-5′-yl)-2-methoxybenzenesulfonamide], the IC50 is less than 600 nM.

On to `C=C(c1ccccc1)c1cc(NS(=O)(=O)c2ccccc2OC)cc2c1NC(=O)C21CCC1` [Compound 11, 2-Methoxy-N-(2′-oxo-7′-(1-phenylvinyl)spiro[cyclobutane-1,3′-indolin]-5′-yl)benzenesulfonamide], for which the IC50 was less than 600 nM.

Consider `COc1ccccc1S(=O)(=O)Nc1cc(N)c2c(c1)C1(CCC1)C(=O)N2` [Compound 12, N-(7′-amino-2′-oxospiro[cyclobutane-1,3′-indolin]-5′-yl)-2-methoxy-benzenesulfonamide], for which the IC50 was less than 600 nM.

Regarding `COc1ccccc1S(=O)(=O)Nc1cc(NCC2CC2)c2c(c1)C1(CCC1)C(=O)N2` [Compound 13, N-(7′-((cyclopropylmethyl)amino)-2′-oxospiro[cyclobutane-1,3′-indolin]-5′-yl)-2-methoxybenzenesulfonamide], the half-maximal inhibitory concentration (IC50) was less than 600 nM.

In the case of `C=CCCNc1cc(NS(=O)(=O)c2ccccc2OC)cc2c1NC(=O)C21CCC1` [Compound 14, N-(7′-(but-3-en-1-ylamino)-2′-oxospiro[cyclobutane-1,3′-indolin]-5′-yl)-2-methoxybenzenesulfonamide], the IC50 was less than 600 nM.

Consider `Nc1cc(NS(=O)(=O)c2ccc(F)cc2F)cc2c1NC(=O)C21CCC1` [Compound 15, N-(7′-amino-2′-oxospiro[cyclobutane-1,3′-indolin]-5′-yl)-2,4-difluoro-benzenesulfonamide], for which the IC50 is less than 600 nM.

As for `CN1CCCC(Nc2cc(NS(=O)(=O)c3ccc(F)cc3F)cc3c2NC(=O)C32CCC2)C1` (centres unmarked) [Compound 16, 2,4-difluoro-N-(7′-((1-methylpiperidin-3-yl)amino)-2′-oxospiro [cyclobutane-1,3′-indolin]-5′-yl)benzenesulfonamide], the IC50 is less than 600 nM.

`CN1CCC(Nc2cc(NS(=O)(=O)c3ccc(F)cc3F)cc3c2NC(=O)C32CCC2)CC1` [Compound 17, 2,4-Difluoro-N-(7′-((1-methylpiperidin-4-yl)amino)-2′-oxospiro[cyclobutane-1,3′-indolin]-5′-yl)benzenesulfonamide]: the IC50 was less than 600 nM.

In the case of `O=C1Nc2c(NC3CCOCC3)cc(NS(=O)(=O)c3ccc(F)cc3F)cc2C12CCC2` [Compound 18, 2,4-Difluoro-N-(2′-oxo-7′-((tetrahydro-2H-pyran-4-yl)amino)spiro[cyclobutane-1,3′-indolin]-5′-yl)benzenesulfonamide], the 50% inhibitory concentration (IC50) was less than 600 nM.

For the compound `O=C1Nc2c(NC3CN4CCC3CC4)cc(NS(=O)(=O)c3ccc(F)cc3F)cc2C12CCC2` (centres unmarked) [Compound 19, 2,4-Difluoro-N-(2′-oxo-7′-(quinuclidin-3-ylamino)spiro[cyclobutane-1,3′-indolin]-5′-yl)benzenesulfonamide], the half-maximal inhibitory concentration (IC50) is less than 600 nM.

Regarding `O=C1Nc2c(NC3CCCCC3)cc(NS(=O)(=O)c3ccc(F)cc3F)cc2C12CCC2` [Compound 20, N-(7′-(cyclohexylamino)-2′-oxospiro[cyclobutane-1,3′-indolin]-5′-yl)-2,4-difluorobenzenesulfonamide], the half-maximal inhibitory concentration (IC50) is greater than 1000 nM.

For `CCC(=O)N1CCC(Nc2cc(NS(=O)(=O)c3ccc(F)cc3F)cc3c2NC(=O)C32CCC2)CC1` [Compound 21, 2,4-Difluoro-N-(2′-oxo-7′-((1-propionylpiperidin-4-yl)amino)spiro[cyclobutane-1,3′-indolin]-5′-yl)benzenesulfonamide], the IC50 is less than 600 nM.

For the compound `CCOC(=O)N1CCC(Nc2cc(NS(=O)(=O)c3ccc(F)cc3F)cc3c2NC(=O)C32CCC2)CC1` [Compound 22, Ethyl 4-((5′-(2,4-difluorophenylsulfonamido)-2′-oxospiro [cyclobutane-1,3′-indolin]-7′-yl)amino)piperidine-1-carboxylate], the IC50 lay within 600 to 1000 nM.

In the case of `O=C1Nc2c(NCc3ccncc3)cc(NS(=O)(=O)c3ccc(F)cc3F)cc2C12CCC2` [Compound 23, 2,4-Difluoro-N-(2′-oxo-7′-((pyridin-4-ylmethyl)amino)spiro[cyclobutane-1,3′-indolin]-5′-yl)benzenesulfonamide], the IC50 is less than 600 nM.

Turning to `CCN1CCC(Nc2cc(NS(=O)(=O)c3ccc(F)cc3F)cc3c2NC(=O)C32CCC2)CC1` [Compound 24, N-(7′-((1-ethylpiperidin-4-yl)amino)-2′-oxospiro[cyclobutane-1,3′-indolin]-5′-yl)-2,4-difluorobenzenesulfonamide], the half-maximal inhibitory concentration (IC50) was less than 600 nM.

On to `O=C1Nc2c(NCc3cnc[nH]3)cc(NS(=O)(=O)c3ccc(F)cc3F)cc2C12CCC2` [Compound 25, N-(7′-(((1H-imidazol-5-yl)methyl)amino)-2′-oxospiro [cyclo butane-1,3′-indolin]-5′-yl)-2,4-difluorobenzene sulfonamide], for which the IC50 is less than 600 nM.

Take `O=C1Nc2c(NC3CCc4cc(F)ccc43)cc(NS(=O)(=O)c3ccc(F)cc3F)cc2C12CCC2` (centres unmarked) [Compound 26, 2,4-Difluoro-N-(7′-((5-fluoro-2,3-dihydro-1H-inden-1-yl)amino)-2′-oxospiro[cyclobutane-1,3′-indolin]-5′-yl)benzenesulfonamide]: the half-inhibitory concentration (IC50) is greater than 1000 nM.

As to `O=C1Nc2c(NCc3cccnc3)cc(NS(=O)(=O)c3ccc(F)cc3F)cc2C12CCC2` [Compound 27, 2,4-difluoro-N-(2′-oxo-7′-((pyridin-3-ylmethyl)amino)spiro[cyclobutane-1,3′-indolin]-5′-yl)benzenesulfonamide], the IC50 was less than 600 nM.

Turning to `CN1CCC(CCNc2cc(NS(=O)(=O)c3ccc(F)cc3F)cc3c2NC(=O)C32CCC2)CC1` [Compound 28, 2,4-Difluoro-N-(7′-((2-(1-methylpiperidin-4-yl)ethyl)amino)-2′-oxospiro[cyclobutane-1,3′-indolin]-5′-yl)benzenesulfonamide], the half-inhibitory concentration (IC50) is less than 600 nM.

Consider `CCCN1CCC(Nc2cc(NS(=O)(=O)c3ccc(F)cc3F)cc3c2NC(=O)C32CCC2)CC1` [Compound 29, 2,4-Difluoro-N-(2′-oxo-7′-((1-propylpiperidin-4-yl)amino)spiro[cyclobutane-1,3′-indolin]-5′-yl)benzenesulfonamide], for which the IC50 is less than 600 nM.

Regarding `Cc1nc(CNc2cc(NS(=O)(=O)c3ccc(F)cc3F)cc3c2NC(=O)C32CCC2)c[nH]1` [Compound 30, 2,4-Difluoro-N-(7′-(((2-methyl-1H-imidazol-4-yl)methyl)amino)-2′-oxospiro[cyclobutane-1,3′-indolin]-5′-yl)benzenesulfonamide], the IC50 was less than 600 nM.

For `Cn1cnc(CNc2cc(NS(=O)(=O)c3ccc(F)cc3F)cc3c2NC(=O)C32CCC2)c1` [Compound 31, 2,4-Difluoro-N-(7′-(((1-methyl-1H-imidazol-4-yl)methyl)amino)-2′-oxospiro[cyclobutane-1,3′-indolin]-5′-yl)benzenesulfonamide], the IC50 is less than 600 nM.

As to `CN1CCC(CNc2cc(NS(=O)(=O)c3ccc(F)cc3F)cc3c2NC(=O)C32CCC2)CC1` [Compound 32, 2,4-Difluoro-N-(7′-(((1-methylpiperidin-4-yl)methyl)amino)-2′-oxospiro[cyclobutane-1,3′-indolin]-5′-yl)benzenesulfonamide], the concentration for half-maximal inhibition (IC50) was less than 600 nM.

Take `O=C1CCC(Nc2cc(NS(=O)(=O)c3ccc(F)cc3F)cc3c2NC(=O)C32CCC2)CN1` (centres unmarked) [Compound 33, 2,4-Difluoro-N-(2′-oxo-7′-((6-oxopiperidin-3-yl)amino)spiro[cyclobutane-1,3′-indolin]-5′-yl)benzenesulfonamide]: the half-maximal inhibitory concentration (IC50) was less than 600 nM.

With `CC1(C)CN(Cc2ccccc2)CCC1Nc1cc(NS(=O)(=O)c2ccc(F)cc2F)cc2c1NC(=O)C21CCC1` (centres unmarked) [Compound 36, N-(7′-((1-benzyl-3,3-dimethylpiperidin-4-yl)amino)-2′-oxospiro[cyclobutane-1,3′-indolin]-5′-yl)-2,4-difluorobenzenesulfonamide], the IC50 was 600 to 1000 nM.

On to `CC(C)(C)OC(=O)N1CCC(Nc2cc(NS(=O)(=O)c3ccc(F)cc3F)cc3c2NC(=O)C32CCC2)C(F)C1` (centres unmarked) [Compound 37, tert-Butyl 4-((5′-(2,4-difluorophenylsulfonamido)-2′-oxospiro[cyclobutane-1,3′-indolin]-7′-yl)amino)-3-fluoro piperidine-1-carboxylate], for which the IC50 was greater than 1000 nM.

As to `COc1ccccc1S(=O)(=O)Nc1cc(NC2CCCN(C)C2)c2c(c1)C1(CCC1)C(=O)N2` (centres unmarked) [Compound 38, 2-Methoxy-N-(7′-((1-methylpiperidin-3-yl)amino)-2′-oxospiro[cyclobutane-1,3′-indolin]-5′-yl)benzenesulfonamide], the IC50 was less than 600 nM.

For `COc1ccccc1S(=O)(=O)Nc1cc(NC2CCN(C)CC2)c2c(c1)C1(CCC1)C(=O)N2` [Compound 39, 2-Methoxy-N-(7′-((1-methylpiperidin-4-yl)amino)-2′-oxospiro[cyclobutane-1,3′-indolin]-5′-yl)benzenesulfonamide], the IC50 was less than 600 nM.

As for `COC(=O)c1cc(NS(=O)(=O)c2ccc(F)cc2F)cc2c1NC(=O)C21CCC1` [Compound 41, Methyl 5′-((2,4-difluorophenyl)sulfonamido)-2′-oxospiro[cyclobutane-1,3′-indoline]-7′-carboxylate], the IC50 was less than 600 nM.

On to `O=C(O)c1cc(NS(=O)(=O)c2ccc(F)cc2F)cc2c1NC(=O)C21CCC1` [Compound 42, 5′-((2,4-difluorophenyl)sulfonamido)-2′-oxospiro[cyclobutane-1,3′-indoline]-7′-carboxylic acid], for which the IC50 is 600 to 1000 nM.

With `CN1CCC(C(=O)Nc2cc(NS(=O)(=O)c3ccc(F)cc3F)cc3c2NC(=O)C32CCC2)CC1` [Compound 43, N-(5′-((2,4-difluorophenyl)sulfonamido)-2′-oxospiro[cyclobutane-1,3′-indolin]-yl)-1-methylpiperidine-4-carboxamide], the IC50 lay in the range of 600 to 1000 nM.
